# According to patent US8859599B2, “Androgen receptor modulating compounds, preparation and uses thereof” (priority 2009, dated 2014):
# Read-outs that look alike come from different tables or passages of the source.
# Columns and labels:
# [1] = test system: LNCaP cells; experiment: Sulforhodamine B (SRB) in vitro chemosensitivity assay on LNCaP cells; assay type: cell-based; conditions: for cytostatic effect: suppression of cell growth: highest concentration tested
# Method: Sulforhodamine B (SRB) assay was used according to the method by Skehan et al. (JNCI, 1990). Briefly, cells were collected by trypsinization, counted and plated at a density of 5,000 cells/well in 96-well flat-bottomed microtiter plates (100 μl of cell suspension/well). In the chemosensitivity assay, experiments were run in octuplicate, and each experiment was repeated three times. The optical density (OD) of cells was determined at a wavelength of 490 nm by a colorimetric plate reader.
# Growth inhibition and cytocidal effect of drugs were calculated according to the formula reported by Monks et al. (JNCI, 1991): [(ODtreated−ODzero)/(ODcontrol−ODzero)]×100%, when ODtreated is > to ODzero. If ODtreated is above ODzero, treatment has induced a cytostatic effect, whereas if ODtreated is below ODzero, cell killing has occurred. The ODzero depicts the cell number at the moment of drug addition, the ODcontrol reflects the cell number in untreated wells and the ODtreated reflects the cell number in treated wells on the day of the assay. TUNEL Assay
# The authors examined the antitumour activity of the compounds for which the synthesis is described above, in the hormone-sensitive prostate cancer cell line LNCaP. (R)-Bicalutamide and the novel compounds were tested at the increasing concentrations of […]. The highest dose used was chosen on the basis of the clinically achievable peak plasma concentration reported in the literature for bicalutamide (Cockshott I D. Clin Pharmacokinet. 2004; 43 (13) 855-78).
# After 144-hr exposure time, the cytotoxic effect of the molecules was calculated according to the method of Monks et al. (Monks A, et al., J. Nat. Cancer Inst. 1991; 83: 757-66).
# [2] = target: T1, human androgen receptor (hAR) (Homo sapiens, UniProt P10275); experiment: hAR transactivation assay (ARE-luciferase reporter) in Cos-7 cells; assay type: cell-based; conditions: for inhibition of androgen-induced transcriptional activation (antagonistic activity): cells challenged with 10 nM R1881, compound at 10 μM
# T1 construct: The cDNA coding hAR was cloned into the pSG5 expression vector as reported previously; expressed in transfected cells; host or cells: Cos-7 cells transiently transfected with pSG5-hAR
# T1 sequence (P10275 1-920): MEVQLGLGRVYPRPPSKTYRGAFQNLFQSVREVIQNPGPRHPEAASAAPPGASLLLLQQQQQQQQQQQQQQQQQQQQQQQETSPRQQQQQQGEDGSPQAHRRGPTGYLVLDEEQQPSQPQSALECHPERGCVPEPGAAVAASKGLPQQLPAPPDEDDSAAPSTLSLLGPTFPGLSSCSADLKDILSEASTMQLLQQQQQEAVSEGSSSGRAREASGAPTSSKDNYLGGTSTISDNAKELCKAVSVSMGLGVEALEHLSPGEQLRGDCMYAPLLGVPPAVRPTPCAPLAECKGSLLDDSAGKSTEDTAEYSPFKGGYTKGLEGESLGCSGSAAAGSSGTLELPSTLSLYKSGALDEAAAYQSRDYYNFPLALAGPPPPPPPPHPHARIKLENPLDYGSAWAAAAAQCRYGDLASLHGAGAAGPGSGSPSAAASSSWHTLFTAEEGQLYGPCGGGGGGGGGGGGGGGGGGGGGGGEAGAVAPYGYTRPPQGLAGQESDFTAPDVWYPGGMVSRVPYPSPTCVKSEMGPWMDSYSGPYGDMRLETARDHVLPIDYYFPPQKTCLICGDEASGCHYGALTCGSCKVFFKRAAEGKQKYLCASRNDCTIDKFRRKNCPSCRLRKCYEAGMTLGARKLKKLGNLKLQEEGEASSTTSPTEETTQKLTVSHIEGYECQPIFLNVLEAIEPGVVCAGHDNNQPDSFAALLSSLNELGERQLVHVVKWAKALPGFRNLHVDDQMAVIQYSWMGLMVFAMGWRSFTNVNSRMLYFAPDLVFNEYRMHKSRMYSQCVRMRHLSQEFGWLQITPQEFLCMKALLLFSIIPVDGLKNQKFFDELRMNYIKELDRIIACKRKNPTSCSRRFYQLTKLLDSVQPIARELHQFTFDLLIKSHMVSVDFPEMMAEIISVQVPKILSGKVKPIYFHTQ
# Method: The cDNA coding hAR was cloned into the pSG5 expression vector as reported previously [Chang, C. S., et al., Science (1988)240:324-326]. The 3416 construct (ARE-Luc), containing four copies of the wild-type slp-HRE2 (5′-TGGTCAgccAGTTCT-3′) (SEQ ID No. 1) was cloned in the NheI site in pTK-TATA-Luc [Verrijdt, G. et al., J. Biol. Chem. (2000)275:12298-12305].
# For androgen-stimulated transcriptional analysis, 32×10^4 Cos-7 cells were plated in phenol red-free DMEM containing 5% charcoal-stripped serum. After 48 h, the cells were transfected by Superfect (Qiagen) with 0.3 μg of 3416-pTK-TATA-Luc construct, together with 1.5 μg of either pSG5-empty plasmid or pSG5-hAR expressing plasmid. After 18 h, transfected cells were stimulated for 24 h with 10 nM of the synthetic androgen, R1881 (from Perkin-Elmer; dissolved in 0.001% ethanol, final concentration), in the absence or presence of the indicated concentrations of synthetic compounds. When indicated, the synthetic compounds were added alone to the cell medium. […] It was dissolved in 0.001% (final concentration) ethanol. Control cells were treated with the vehicle alone. Lysates were prepared and the luciferase activity was measured using a luciferase assay system (Promega). The results were corrected using CH110-expressed beta-galactosidase activity (Amersham Biosciences) and luciferase activity was expressed as fold induction. Results were obtained from two or three different experiments, each performed in duplicate. Mean and SEM are shown.
# [3] = test system: LNCaP-AR cells; experiment: TUNEL assay of apoptotic cells in LNCaP-AR; assay type: cell-based, human; conditions: 144 h, 20.0 μM
# [4] = Homo sapiens, LNCaP cells, 144 h exposure, read-out: Growth inhibition (GI50)
# [5] = LNCaP cells, 144 h exposure, n.r. = not reached
# [6] = Homo sapiens, LNCaP, 144 h, read-out: Growth inhibition (GI50), LNCaP cells, 144 h exposure
smiles,measurement,setting,value
N#Cc1ccc(NC(=O)[C@](N)(Cc2ccc(F)cc2)c2ccccc2)cc1C(F)(F)F [(S)-36],cytocidal effects by 50% (LC50),[1],n.r.
same,GI50,[1]; [4],4.3 µM
same,cytostatic effect: suppression of cell growth,"[1]; LNCaP cells, 144 h",suppress completely the cell growth
"C[C@@]1(CS(=O)(=O)c2ccc(F)cc2)NC(=O)N(c2ccc(C#N)c(C(F)(F)F)c2)C1=O [(R)-28, (R)-4-(4-((4-fluorophenylsulfonyl)methyl)-4-methyl-2,5-dioxoimidazolidin-1-yl)-2-(trifluoromethyl)benzonitrile]",cytocidal effects by 50% (LC50),[1],n.r.
same,GI50,[1]; [4],14.9 µM
N#Cc1ccc(NC(=O)C(N)(CS(=O)(=O)c2ccc(F)cc2)c2ccccc2)cc1C(F)(F)F (stereo in doubt) [(S)-9],cytostatic effect: suppression of cell growth,"[1]; LNCaP cells, 144 h",suppress completely the cell growth
same,cytocidal effects by 50% (LC50),[1]; [5],n.r.
same,GI50,"[1]; read-out: Growth inhibition (GI50), LNCaP cells, 144 h exposure",4 µM
C[C@@]1(CS(=O)(=O)c2ccc(F)cc2)C(=O)N(c2ccc(C#N)c(C(F)(F)F)c2)C(=S)N1S(C)(=O)=O [(S)-30],cytocidal effects by 50% (LC50),[1],n.r.
same,Growth inhibition (GI50),"[1]; LNCaP cells, 144 h exposure",n.r.
"N#Cc1ccc(N2C(=O)[C@@](CS(=O)(=O)c3ccc(F)cc3)(c3ccccc3)NC2=S)cc1C(F)(F)F [(R)-13, (R)-4-(4-((4-fluorophenylsulfonyl)methyl)-5-oxo-4-phenyl-2-thioxoimidazolidin-1-yl)-2-(trifluoromethyl)benzonitrile]",cytocidal effects by 50% (LC50),[1],n.r.
same,GI50,[1]; [4],14 µM
C[C@]1(CS(=O)(=O)c2ccc(F)cc2)C(=O)N(c2ccc(C#N)c(C(F)(F)F)c2)C(=O)N1S(C)(=O)=O [(R)-29],cytocidal effects by 50% (LC50),[1],n.r.
same,GI50,[1]; [4],12.3 µM
CS(=O)(=O)N[C@@](CS(=O)(=O)c1ccc(F)cc1)(C(=O)Nc1ccc(C#N)c(C(F)(F)F)c1)c1ccccc1 [(R)-12],inhibition of androgen-induced transcriptional activation (antagonistic activity),[2],does not interfere
same,"agonistic activity, compound alone",[2]; range between 10 nM-10 μM,does not show agonistic activity
N#Cc1ccc(OC[C@]2(Cc3ccccc3)NC(=O)N(c3ccc(C#N)c(C(F)(F)F)c3)C2=O)cc1 [(S)-14e],"increase of transcriptional activity of AR, compound alone",[2]; 100 nM,about 55 fold
N#Cc1ccc(N2C(=O)[C@](Cc3ccccc3)(CS(=O)(=O)c3ccc(F)cc3)NC2=S)cc1C(F)(F)F [(R)-11],cytocidal effects by 50% (LC50),[1],n.r.
same,GI50,[1]; [4],8.5 µM
same,cytocidal (cell killing) activity,"[1]; LNCaP cells, 144 h exposure",cytocidal activity
same,"agonistic activity, compound alone",[2]; authors' experimental conditions,does not show agonistic activity
same,inhibition of androgen-induced transcriptional activation (antagonistic activity),[2],strong inhibition
C[C@@](N)(CS(=O)(=O)c1ccc(F)cc1)C(=O)Nc1ccc(C#N)c(C(F)(F)F)c1 [(S)-23],GI50,[1]; [6],9.4 µM
same,cytocidal effects by 50% (LC50),[1]; [5],n.r.
C[C@]1(CS(=O)(=O)c2ccc(F)cc2)NC(=O)N(c2ccc(C#N)c(C(F)(F)F)c2)C1=O [(S)-28],cytocidal effects by 50% (LC50),[1],n.r.
same,GI50,[1]; [4],1.8 µM
C[C@@]1(CS(=O)(=O)c2ccc(F)cc2)NC(=S)N(c2ccc(C#N)c(C(F)(F)F)c2)C1=O [(R)-27],cytocidal effects by 50% (LC50),[1],n.r.
same,GI50,[1]; [4],15.2 µM
C[C@@]1(CS(=O)(=O)c2ccc(F)cc2)C(=O)N(c2ccc(C#N)c(C(F)(F)F)c2)C(=O)N1S(C)(=O)=O [(S)-29],cytocidal effects by 50% (LC50),[1],n.r.
same,GI50,[1]; [4],12.5 µM
N#Cc1ccc(NC(=O)C(N)(Cc2ccccc2)CS(=O)(=O)c2ccc(F)cc2)cc1C(F)(F)F (stereo in doubt) [(S)-8],cytocidal effects by 50% (LC50),[1],n.r.
same,GI50,[1]; [4],10.4 µM
same,cytostatic effect: suppression of cell growth,"[1]; LNCaP cells, 144 h",suppress completely the cell growth
N#Cc1ccc(OCC(N)(Cc2ccccc2)C(=O)Nc2ccc(C#N)c(C(F)(F)F)c2)cc1 (stereo in doubt) [(R)-7c],agonistic activity in presence of Casodex,[2]; Casodex at 10 μM,inhibited
same,"increase of transcriptional activity of AR, compound alone",[2]; range between 10-100 nM,about 15 fold
"N#Cc1ccc(NC(=O)[C@](N)(Cc2ccccc2)CS(=O)(=O)c2ccc(F)cc2)cc1C(F)(F)F [(R)-8, (R)-2-amino-2-benzyl-N-(4-cyano-3-(trifluoromethyl)phenyl)-3-(4-fluorophenylsulfonyl)propanamide]",cytocidal (cell killing) activity,"[1]; LNCaP cells, 144 h exposure",cytocidal activity
C[C@]1(CS(=O)(=O)c2ccc(F)cc2)N=C(SS(C)(=O)=O)N(c2ccc(C#N)c(C(F)(F)F)c2)C1=O [(S)-31],cytocidal effects by 50% (LC50),[1],n.r.
same,Growth inhibition (GI50),"[1]; LNCaP cells, 144 h exposure",n.r.
"C[C@]1(O)CC[C@H]2[C@@H]3CCC4=CC(=O)CCC4=C3C=C[C@@]21C [R1881, methyltrienolone-17β-hydroxy-17-methyl-estra-4,9.11-trien-3-one, reference compound]",increase of AR-mediated transcriptional activation,"[2]; 10 nM, Cos-7 cells, ARE-reporter gene",about 11 fold
Cc1ccc(S(=O)(=O)N[C@@](C)(CS(=O)(=O)c2ccc(F)cc2)C(=O)Nc2ccc(C#N)c(C(F)(F)F)c2)cc1 [(R)-26],GI50,[1]; [6],9.3 µM
same,cytocidal effects by 50% (LC50),[1]; [5],n.r.
same,apoptosis induction in the LNCaP derivative cell line versus LNCaP,[3],more active
same,inhibition of androgen-induced transcriptional activation (antagonistic activity),[2],does not show antagonistic activity
